Literature values as cited in patent US20140107050A1, “INCREASING BIOAVAILABILITY OF N-COUMAROYLDOPAMINE THROUGH CO-ADMINISTRATION WITH A CATECHOL-O-[…] (COMT) INHIBITOR” (Redefine Nutrition, LLC, priority 2012, published 2014).

Key:
[1] = target: T1, beta-adrenoreceptor (Homo sapiens, UniProt P07550); settings: recent in vitro studies (Park 2005)
T1 construct: increase cAMP via beta 2-adrenoreceptors in myelocytic U937 cells; endogenous in cells; host or cells: U937 cells

[2] = target: T2, catechol-o-methyltransferase (COMT) (Homo sapiens, UniProt P21964); settings: values taken from cited literature; read-out: half maximal inhibitory concentration (IC50) for COMT inhibition
T2 sequence (P21964 1-271): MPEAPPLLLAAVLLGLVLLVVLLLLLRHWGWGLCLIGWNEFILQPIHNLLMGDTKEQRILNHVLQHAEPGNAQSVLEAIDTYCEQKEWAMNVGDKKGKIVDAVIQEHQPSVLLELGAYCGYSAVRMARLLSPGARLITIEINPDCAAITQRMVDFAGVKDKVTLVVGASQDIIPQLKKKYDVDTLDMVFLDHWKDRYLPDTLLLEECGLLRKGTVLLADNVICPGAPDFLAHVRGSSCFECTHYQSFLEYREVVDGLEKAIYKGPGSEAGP

T1 sequence (P07550 whole entry): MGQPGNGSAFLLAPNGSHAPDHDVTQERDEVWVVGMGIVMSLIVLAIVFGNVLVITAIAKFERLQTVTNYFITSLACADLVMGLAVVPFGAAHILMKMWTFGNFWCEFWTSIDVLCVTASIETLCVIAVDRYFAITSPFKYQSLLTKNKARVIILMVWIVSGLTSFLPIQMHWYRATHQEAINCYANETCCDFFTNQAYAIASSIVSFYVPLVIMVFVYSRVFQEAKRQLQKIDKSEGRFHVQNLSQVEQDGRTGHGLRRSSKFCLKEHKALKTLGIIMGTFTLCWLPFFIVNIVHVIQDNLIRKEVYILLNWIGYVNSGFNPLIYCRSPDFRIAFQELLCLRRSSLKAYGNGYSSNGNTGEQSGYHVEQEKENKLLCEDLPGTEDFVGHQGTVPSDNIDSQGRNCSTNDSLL

Row | Compound | beta-adrenoreceptor agonist activity [1] | IC50 [2]
1 | O=C(/C=C/c1ccc(O)cc1)NCCc1ccc(O)c(O)c1 [N-coumaroyldopamine] | acts as a beta-adrenoreceptor agonist | 
2 | O=c1c(O)c(-c2ccc(O)c(O)c2)oc2cc(O)cc(O)c12 [quercetin] |  | ~500 nM
3 | O=C(/C=C/c1ccc(O)c(O)c1)O[C@@H]1C[C@](O)(C(=O)O)C[C@@H](O)[C@H]1O [chlorogenic acid] |  | 1300 to 1400 nM
